Measured values from patent US6372756B1, “Epimorphian compound and its use” (AvMax, Inc., priority 1998, dated 2002).
Read-outs that look alike come from different tables or passages of the source.

Tests used:
[1] = system: interleukin-2 (IL-2) synthesis in OKT3-stimulated PBMCs; assay: OKT3-stimulated human peripheral blood mononuclear cell assay, IL-2 secretion by ELISA; type: cell-based; details: for IC50: OKT3 (1 μg/l) for 14 hours, curve fit, three independent experiments, read-out: IC50 of inhibition of IL-2 synthesis
Procedure: In an OKT3-stimulated human peripheral blood mononuclear cell assay, the relative biological activities of sinomenine and N-demethyl-sinomenine were tested.
The OKT3-stimulated human peripheral blood mononuclear cell assay was performed as described in Liu, L. et al., Inhibition of Lymphocyte Proliferation by the Anti-Arthritic Drug Sinomenine, Int. J. Immunopharmac., 16(8):685-691, (1994). Human Peripheral Blood Mononuclear Cells (PBMCS) were isolated from heparinized blood drawn from healthy adults. After separation from other blood components by density gradient centrifugation on Ficoll-hypaque (Biochrom, Berlin, Germany), the PBMCs were suspended in RPMI 1640 medium/10%FCS (RPMI 1640 medium with L-glutamine and nonessential amino acids: Gibco (Eggenstein, Germany); fetal calf serum (FCS): PAA Biologics (Marburg, Germany)).
The PBMCs (10^5 cells in a total volume of 150 μl per well) were activated by incubation with the monoclonal anti-T-cell receptor/CD3 complex antibody OKT3 (1 μg/l) for 14 hours. During this incubation, either sinomenine or N-demethyl-sinomenine was present in each of the main experimental wells at concentrations ranging from 10^−8 to 10^−3 M, as indicated on the x-axes of the graphs of FIGS. 10A and 10B. Control wells containing neither sinomenine nor its major metabolite were also prepared. The concentration of secreted IL-2 in the supernatants of activated PBMCs was determined using a commercial ELISA kit (Immunotech, Hamburg, Germany) following the manufacturer's instructions. In each of FIGS. 10A-B, the mean and standard error of three independent experiments are shown.
FIG. 10A presents the results for inhibition of IL-2 secretion by sinomenine. The concentration of IL-2 production, as a percentage of the control (100% equalled 1135 pg/ml, in this instance), was plotted against the molar concentration of sinomenine for each data point. The curves depicted were generated by a curve fit computer program (Microcal Origin Version 3.5). […]

human liver microsomes = assay: Incubation of sinomenine with human liver microsomes and NADPH generating system, HPLC/UV; type: in vitro ADME
Procedure: The livers of male Sprague Dawley rats, treated with dexamethasone for two days, and human liver specimens provided the sources for the starting material. Liver microsomes were prepared using standard centrifugation techniques as described by Guengerich (Guengerich, F. P., et al., Microsomal Enzymes Involved in Toxicology-Analysis and Separation, In: Principles and Methods in Toxicology (Ed. Hayes A W), pp. 609-637, Raven Press, New York, (1982)) with some modifications. Specifically, phosphate buffer was used instead of TRIS buffer and microsomes were stored at −80° C. The protein concentration was determined using a bicinchoninic acid assay (Redingbaugh, M. G., et al., Adaptation of the Bicinchoninic Acit Protein Assay for Use With Microtiter Plates and Sucrose Gradient Fractions, Anal. Biochem., 153:267-271, (1986)) and adjusted with 0.1 M potassium phosphate buffer, pH 7.4, to 3 g/l. […]
The presence of sinomenine and N-demethyl-sinomenine over time in the presence of microsomes and an NADPH generating solution were determined by HPLC and ultraviolet (UV) analysis. […]
For the HPLC analysis, a 250×4 mm analytical column was prepared with endcapped C18 material of 5 μm particle size. […] Sinomenine and its metabolites were detected with a UV wavelength of 234 nm. […]

[2] = Water solubility inferred from retention on lipophilic reversed-phase HPLC column; type: physicochemical; details: evidenced by shorter retention time on lipophilic reversed-phase HPLC column
Text: This characteristic of the novel compound results in a different oral bioavailability, pharmacokinetic profile, and organ distribution pattern than the known compound and also leads to ease in creating formulations for therapeutic use.
An HPLC system was also used for analysis of the sinomenine metabolism end products. For analytical HPLC, sinomenine and its metabolites were separated on a 250×4 mm LiChroCart column filled with endcapped Supersphere RP-18 material of 5 μm particle size and 100 Å pore width (Merck, Darmstadt, Germany).
The metabolite was prepared as described in Example 1. The samples were centrifuged (2000 g, 2 minutes) and 100 μl of the supernatant was injected into the analytical HPLC system. A control sample was prepared by the method described in Example 1 except that sinomenine and liver microsomes were incubated with an equal amount of phosphate buffer instead of with the NADPH generating solution. An HPLC run of the control sample was also made. The flow rate for the HPLC was set at 1 ml/min and the UV detection wavelength was 234 nm. The analytical column was kept at room temperature.
Sinomenine and its metabolites were isocratically eluted from the column with a mobile phase of 9.0/9.0/12.0/70.0 v/v/v/v methanol/acetonitrile/0.2 M sodium acetate/water, pH 5.5. The various fractions were quantified based on an external sinomenine calibration curve. […]

[3] = In vivo sinomenine metabolism, rat plasma; set-up: species or system female Lewis rats; details: sinomenine 150 mg/kg intraperitoneally, blood after 30 minutes
Procedure: (§1) More particularly, to study its metabolism in vivo, sinomenine was injected intraperitoneally into female Lewis rats at a concentration of 150 mg/kg body weight. Blood was taken after 30 minutes from the rat tail vein and plasma samples were prepared from the blood samples via standard techniques. In a parallel study, MRL-1 pr mice were injected intraperitoneally with either sinomenine at a concentration of 100 mg/kg body weight or physiological saline. Mouse urine was collected over a period of 24 hours.
(§2) The collected samples of rat blood and mouse urine from each of these studies were split so that testing could be performed immediately and after storage at −20° C. for one week. HPLC and GC/MS analysis was performed and there were no statistically significant differences in the results obtained from the immediately tested and the frozen samples.
(§3) A metabolite peak with the same relative retention time as the major metabolite isolated after incubation of sinomenine and NADPH generating solution with rat microsomes or human liver microsomes was obtained upon analysis of the rat blood and mouse urine samples. […] FIGS. 9A-B show HPLC chromatograms run on urine samples obtained from mice treated with saline (FIG. 9A) or with sinomenine (FIG. 9B). […]

[4] = In vivo sinomenine metabolism, mouse urine; set-up: species or system MRL-1 pr mice; details: sinomenine 100 mg/kg intraperitoneally, urine collected over 24 hours
Procedure: as §1, §2, §3

Lymphocyte proliferation = details: in vitro; cited from earlier work
[5] = in vivo; cited from earlier work

COC1=C[C@H]2[C@H]3Cc4ccc(OC)c(O)c4[C@@]2(CCN3)CC1=O [N-demethyl-sinomenine]
IC50 [1]: 20 µM
biological activity (IL-2 inhibition IC50) relative to sinomenine ([1]; same assay, relative to sinomenine): approximately five
share of all sinomenine metabolic products (human liver microsomes; believed to represent): approximately 90%
water solubility relative to sinomenine [2]: greater water solubility
detection as metabolite in plasma [3]: detected as a metabolite
detection as metabolite in urine [4]: detected as a metabolite

COC1=C[C@@H]2[C@@H]3Cc4ccc(OC)c(O)c4[C@]2(CCN3C)CC1=O [sinomenine, reference compound]
IC50 ([1]; Homo sapiens, PBMC): 100 µM
amounts of sinomenine and its major metabolite (human liver microsomes; 120 minutes after the start of the reaction, human liver microsomes): approximately equal amounts
effect on lymphocyte proliferation (Lymphocyte proliferation): inhibited by sinomenine in a reversible manner without exhibiting direct cytotoxic effects
side effects [5]: minor side effects such as mild pain, cough, and diarrhea
